pIC50: −log10 of the molar value.
target: T1, Solute carrier family 22 member 12 (Homo sapiens, UniProt Q96S37); test: Inhibition of URAT1 (unknown origin)-mediated 14C-uric acid uptake expressed in HEK293 cells using 14C-uric acid as substrate preincubated for 30 mins followed by substrate addition and measured after 15 mins by liquid scintillation counting analysis; assay type: cell-based
T1 sequence (Q96S37 whole entry): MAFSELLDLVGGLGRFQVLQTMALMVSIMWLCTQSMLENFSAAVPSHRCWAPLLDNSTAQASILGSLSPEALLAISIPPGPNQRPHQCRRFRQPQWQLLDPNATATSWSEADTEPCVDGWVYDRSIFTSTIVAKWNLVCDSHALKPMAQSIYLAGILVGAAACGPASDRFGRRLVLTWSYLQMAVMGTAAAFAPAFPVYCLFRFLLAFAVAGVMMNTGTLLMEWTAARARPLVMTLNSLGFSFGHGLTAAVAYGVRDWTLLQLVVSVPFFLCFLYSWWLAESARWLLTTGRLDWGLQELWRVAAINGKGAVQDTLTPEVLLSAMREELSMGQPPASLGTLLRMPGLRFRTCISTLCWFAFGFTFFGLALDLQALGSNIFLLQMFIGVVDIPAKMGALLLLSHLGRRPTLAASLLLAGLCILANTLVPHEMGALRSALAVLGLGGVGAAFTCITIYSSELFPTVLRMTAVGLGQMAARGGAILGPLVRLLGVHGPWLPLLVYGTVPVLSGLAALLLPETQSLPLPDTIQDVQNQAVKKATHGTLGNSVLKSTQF

Row | SMILES | pIC50
1 | CN(c1cnccc1SCCCCC(=O)O)c1ccc(C#N)c2ccccc12 | 5.45
2 | CC(C)(Sc1ccncc1Oc1ccc(C#N)c2ccccc12)C(=O)O | 5.28
3 | N#Cc1ccc(Oc2cnccc2SCCCCCCC(=O)O)c2ccccc12 | 5.42
4 | N#Cc1ccc(Nc2cnccc2Sc2ccc(Br)cc2CC(=O)O)c2ccccc12 | 5.39
5 | COc1cc(C(=O)O)ccc1CSc1ccncc1Oc1ccc(C#N)c2ccccc12 | 4.79
6 | N#Cc1ccc(Oc2cnccc2Sc2cccc([N+](=O)[O-])c2CC(=O)O)c2ccccc12 | 4.98
7 | COc1cc(C(=O)O)ccc1CSc1ccncc1Nc1ccc(C#N)c2ccccc12 | 5.78
8 | N#Cc1ccc(Nc2cnccc2SCCCC(=O)O)c2ccccc12 | 5.56
9 | COc1ccc(Sc2ccncc2Oc2ccc(C#N)c3ccccc23)c(CC(=O)O)c1 | 4.85
10 | N#Cc1ccc(Nc2cnccc2SCCCCCC(=O)O)c2ccccc12 | 5.37
11 | N#Cc1ccc(Nc2cnccc2SCc2ccc(C(=O)O)cc2)c2ccccc12 | 5.59
12 | N#Cc1ccc(Nc2cnccc2SCc2cccc(C(=O)O)c2)c2ccccc12 | 5.71
13 | CN(c1cnccc1SCc1ccc(-c2ccccc2C(=O)O)cc1)c1ccc(C#N)c2ccccc12 | 5.34
14 | N#Cc1ccc(Oc2cnccc2SCCCCCC(=O)O)c2ccccc12 | 5.32
15 | CN(c1cnccc1SCc1ccc(C(=O)O)cc1)c1ccc(C#N)c2ccccc12 | 5.20
16 | N#Cc1ccc(Oc2cnccc2SCc2ccccc2C(=O)O)c2ccccc12 | 5.16
17 | N#Cc1ccc(Oc2cnccc2SCc2ccc(-c3ccccc3C(=O)O)cc2)c2ccccc12 | 4.82

Row | SMILES | pIC50
18 | COc1ccc(Sc2ccncc2Nc2ccc(C#N)c3ccccc23)c(CC(=O)O)c1 | 5.37
19 | CN(c1cnccc1SCCCCCCC(=O)O)c1ccc(C#N)c2ccccc12 | 5.33
20 | N#Cc1ccc(Oc2cnccc2SCc2ccc(C(=O)O)cc2)c2ccccc12 | 4.99
21 | CN(c1cnccc1SCCCC(=O)O)c1ccc(C#N)c2ccccc12 | 5.59
22 | N#Cc1ccc(Nc2cnccc2SCc2ccc(-c3ccccc3C(=O)O)cc2)c2ccccc12 | 5.33
23 | N#Cc1ccc(Nc2cnccc2Sc2cccc([N+](=O)[O-])c2CC(=O)O)c2ccccc12 | 5.46
24 | N#Cc1ccc(Nc2cnccc2SCCCCC(=O)O)c2ccccc12 | 5.64
25 | N#Cc1ccc(Nc2cnccc2SCCCCCCC(=O)O)c2ccccc12 | 5.24
26 | CN(c1cnccc1SCCCCCC(=O)O)c1ccc(C#N)c2ccccc12 | 5.42
27 | N#Cc1ccc(Oc2cnccc2SCc2cccc(C(=O)O)c2)c2ccccc12 | 5.18
28 | CN(c1cnccc1SCc1ccccc1C(=O)O)c1ccc(C#N)c2ccccc12 | 5.35
29 | N#Cc1ccc(Oc2cnccc2SCCCCC(=O)O)c2ccccc12 | 5.37
30 | N#Cc1ccc(Oc2cnccc2Sc2ccc(Br)cc2CC(=O)O)c2ccccc12 | 5.09
31 | CN(c1cnccc1SC(C)(C)C(=O)O)c1ccc(C#N)c2ccccc12 | 5.27
32 | N#Cc1ccc(Oc2cnccc2SCC(=O)O)c2ccccc12 | 5.16
33 | CN(c1cnccc1SCc1cccc(C(=O)O)c1)c1ccc(C#N)c2ccccc12 | 5.45

From ChEMBL document CHEMBL5154691, “Discovery of novel verinurad analogs as dual inhibitors of URAT1 and GLUT9 with improved Druggability for the treatment of hyperuricemia” (Eur J Med Chem, 2022)
